# From US8975406B2, “Compound useful for the treatment of degenerative and inflammatory diseases” (Galapagos N.V., priority 2011, dated 2015)
# Assays:
# [1] = molecular target: T1, Recombinant human TYK2 catalytic domain (Homo sapiens, UniProt P29597); experiment: TYK2 inhibition assay; type: biochemical; conditions: polyGT substrate, 33P-gamma-ATP filter assay, 0.1 μM ATP
# T1 construct: catalytic domain (amino acids 871-1187; catalog number 08-147); GST; purchased Carna Biosciences 08-147
# T1 sequence (P29597 871-1187): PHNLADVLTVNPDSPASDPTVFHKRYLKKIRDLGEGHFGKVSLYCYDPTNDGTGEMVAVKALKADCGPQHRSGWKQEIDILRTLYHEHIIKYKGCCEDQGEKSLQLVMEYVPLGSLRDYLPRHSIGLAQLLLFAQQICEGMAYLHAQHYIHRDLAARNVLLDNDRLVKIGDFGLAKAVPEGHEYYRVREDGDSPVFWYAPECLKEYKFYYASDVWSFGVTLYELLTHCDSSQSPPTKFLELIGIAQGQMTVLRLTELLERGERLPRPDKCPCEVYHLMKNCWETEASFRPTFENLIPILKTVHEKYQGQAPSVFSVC
# Experimental: Recombinant human TYK2 catalytic domain (amino acids 871-1187; catalog number 08-147) was purchased from Carna biosciences. 4 ng of TYK2 was incubated with 12.5 μg polyGT substrate (Sigma catalog number P0275) in kinase reaction buffer (25 mM Hepes pH 7.2, 50 mM NaCl, 0.5 mM EDTA, 1 mM DTT, 5 mM MnCl2, 10 mM MgCl2, 0.1% Brij-35, 0.1 μM non-radioactive ATP, 0.125 μCi ^33P-gamma-ATP (Perkin Elmer, catalog number NEG602K001MC) final concentrations) with or without 5 μL containing test compound or vehicle (DMSO, 1% final concentration), in a total volume of 25 μL, in a polypropylene 96-well plate (Greiner, V-bottom). After 90 min at 30° C., reactions were stopped by adding 25 μL/well of 150 mM phosphoric acid. All of the terminated kinase reaction was transferred to prewashed (75 mM phosphoric acid) 96 well filter plates (Perkin Elmer catalog number 6005177) using a cell harvester (Perkin Elmer). Plates were washed 6 times with 300 μL per well of a 75 mM phosphoric acid solution and the bottom of the plates was sealed. 40 μL/well of Microscint-20 was added, the top of the plates was sealed and readout was performed using the Topcount (Perkin Elmer). Kinase activity was calculated by subtracting counts per min (cpm) obtained in the presence of a positive control inhibitor (10 μM staurosporine) from cpm obtained in the presence of vehicle. The ability of a test compound to inhibit this activity was determined as: Percentage inhibition=((cpm determined for sample with test compound present−cpm determined for sample with positive control inhibitor)divided by(cpm determined in the presence of vehicle−cpm determined for sample with positive control inhibitor))*100.
# Dose dilution series were prepared for the compounds enabling the testing of dose-response effects in the TYK2 assay and the calculation of the IC50 for each compound. Each compound was routinely tested at concentration of 20 μM followed by a ⅓ serial dilution, 8 points (20 μM-6.67 μM-2.22 μM-740 nM-247 nM-82 nM-27 nM-9 nM) in a final concentration of 1% DMSO. When potency of compound series increased, more dilutions were prepared and/or the top concentration was lowered (e.g. 5 μM, 1 μM).
# [2] = test system: JAK-STAT signalling in HeLa cells; experiment: JAK-STAT signalling assay (pSTAT1(2)-luciferase reporter, OSM-triggered HeLa cells); type: cell-based; conditions: human OSM 33 ng/mL
# Experimental: HeLa cells were maintained in Dulbecco's Modified Eagle's Medium (DMEM) containing 10% heat inactivated fetal calf serum, 100 U/mL penicillin and 100 μg/mL streptomycin. HeLa cells were used at 70% confluence for transfection. 20,000 cells in 87 μL cell culture medium were transiently transfected with 40 ng pSTAT1(2)-luciferase reporter (Panomics), 8 ng of LacZ reporter as internal control reporter and 52 ng of pBSK using 0.32 μL Jet-PEI (Polyplus) as transfection reagent per well in 96-well plate format. After overnight incubation at 37° C., 5% CO2, transfection medium was removed. 81 μL of DMEM+1.5% heat inactivated fetal calf serum was added. 9 μL compound at 10× concentration was added for 60 min and then 10 μL of human OSM (Peprotech) at 33 ng/mL final concentration.
# All compounds were tested in duplicate starting from 20 μM followed by a ⅓ serial dilution, 8 doses in total (20 μM-6.6 μM-2.2 μM-740 nM-250 nM-82 nM-27 nM-9 nM) in a final concentration of 0.2% DMSO.
# After overnight incubation at 37° C., 5% CO2 cells were lysed by adding 100 μL lysis buffer/well (PBS, 0.9 mM CaCl2, 0.5 mM MgCl2, 10% Trehalose, 0.05% Tergitol NP9, 0.3% BSA).
# 40 μL of cell lysate was used to read β-galactosidase activity by adding 180 μL β-Gal solution (30 μl ONPG 4 mg/mL+150 μL β-Galactosidase buffer (0.06 M Na2HPO4, 0.04 M NaH2PO4, 1 mM MgCl2)) for 20 min. The reaction was stopped by addition of 50 μL Na2CO3 1 M. Absorbance was read at 405 nm.
# Luciferase activity was measured using 40 μL cell lysate plus 40 μL of Steadylite® as described by the manufacturer (Perkin Elmer), on the Envision (Perkin Elmer).
# Omitting OSM was used as a positive control (100% inhibition). As negative control 0.5% DMSO (0% inhibition) was used. The positive and negative controls were used to calculate z′ and ‘percent inhibition’ (PIN) values. Percentage inhibition=((fluorescence determined in the presence of vehicle−fluorescence determined for sample with test compound present)divided by(fluorescence determined in the presence of vehicle−fluorescence determined for sample without trigger))*100.
# PIN values were plotted for compounds tested in dose-response and EC50 values were derived.
IC50 [1],IC50 [2],SMILES
0.01 to 100 nM,> 1000 nM,"COc1ccc(-c2cccn3nc(NC(=O)C4CC4)cc23)cc1 [Compound 1, N-(4-(4-methoxyphenyl)pyrazolo[1,5-a]pyridin-2-yl)cyclopropanecarboxamide]"
101 to 500 nM,–,"O=C(Nc1cc2c(-c3ccc(OCc4ccccc4)cc3)cccn2n1)C1CC1 [Compound 2, N-(4-(4-(benzyloxy)phenyl)pyrazolo[1,5-a]pyridin-2-yl)cyclopropanecarboxamide]"
101 to 500 nM,> 1000 nM,"O=C(Nc1cc2c(-c3ccc4c(ccn4Cc4ccccc4)c3)cccn2n1)C1CC1 [Compound 3, N-(4-(1-benzyl-1H-indol-5-yl)pyrazolo[1,5-a]pyridin-2-yl)cyclopropanecarboxamide]"
0.01 to 100 nM,> 1000 nM,"O=C(Nc1cc2c(-c3ccc4[nH]ccc4c3)cccn2n1)C1CC1 [Compound 4, N-(4-(1H-indol-5-yl)pyrazolo[1,5-a]pyridin-2-yl)cyclopropanecarboxamide]"
0.01 to 100 nM,101 to 500 nM,"O=C(NCCc1ccccc1)c1ccc(-c2cccn3nc(NC(=O)C4CC4)cc23)cc1 [Compound 5, 4-(2-(cyclopropanecarboxamido)pyrazolo[1,5-a]pyridin-4-yl)-N-phenethylbenzamide]"
101 to 500 nM,101 to 500 nM,"O=C(NCCOc1ccccc1)c1ccc(-c2cccn3nc(NC(=O)C4CC4)cc23)cc1 [Compound 6, 4-(2-(cyclopropanecarboxamido)pyrazolo[1,5-a]pyridin-4-yl)-N-(2-phenoxyethyl)benzamide]"
> 1000 nM,–,"COc1ccc(-c2cccn3nc(NC(=O)C4CC4)c(-c4ccccc4)c23)cc1 [Compound 7, N-(4-(4-methoxyphenyl)-3-phenylpyrazolo[1,5-a]pyridin-2-yl)cyclopropanecarboxamide]"
–,> 1000 nM,"O=C(Nc1cc2c(-c3ccc(OCc4cccnc4)cc3)cccn2n1)C1CC1 [Compound 8, N-(4-(4-(pyridin-3-ylmethoxy)phenyl)pyrazolo[1,5-a]pyridin-2-yl)cyclopropanecarboxamide]"
0.01 to 100 nM,101 to 500 nM,"N#Cc1ccc(COc2ccc(-c3cccn4nc(NC(=O)C5CC5)cc34)cc2)cn1 [Compound 9, N-(4-(4-((6-cyanopyridin-3-yl)methoxy)phenyl)pyrazolo[1,5-a]pyridin-2-yl)cyclopropanecarboxamide]"
0.01 to 100 nM,101 to 500 nM,"O=C(Nc1cc2c(-c3ccc(CN4CCS(=O)(=O)CC4)cc3)cccn2n1)C1CC1 [Compound 10, Cyclopropanecarboxylic acid {4-[4-(1,1-dioxo-thiomorpholin-4-ylmethyl)-phenyl]-pyrazolo[1,5-a]pyridin-2-yl}-amide]"
0.01 to 100 nM,501 to 1000 nM,"O=C(Nc1nn2cccc(-c3ccc(CN4CCS(=O)(=O)CC4)cc3)c2c1F)C1CC1 [Compound 11, Cyclopropanecarboxylic acid {4-[4-(1,1-dioxo-thiomorpholin-4-ylmethyl)-phenyl]-3-fluoro-pyrazolo[1,5-a]pyridin-2-yl}-amide]"
0.01 to 100 nM,> 1000 nM,"O=C(Nc1nn2cccc(-c3ccc(CN4CCS(=O)(=O)CC4)cc3)c2c1Br)C1CC1 [Compound 12, Cyclopropanecarboxylic acid {4-[4-(1,1-dioxo-thiomorpholin-4-ylmethyl)-phenyl]-3-bromo-pyrazolo[1,5-a]pyridin-2-yl}-amide]"
0.01 to 100 nM,501 to 1000 nM,"O=C(Nc1nn2cccc(-c3ccc(CN4CCS(=O)(=O)CC4)cc3)c2c1Cl)C1CC1 [Compound 13, Cyclopropanecarboxylic acid {4-[4-(1,1-dioxo-thiomorpholin-4-ylmethyl)-phenyl]-3-chloro-pyrazolo[1,5-a]pyridin-2-yl}-amide]"
0.01 to 100 nM,101 to 500 nM,"O=C(Nc1cc2c(-c3ccc(C(=O)N4CCCCC4)cc3)cccn2n1)C1CC1 [Compound 14, Cyclopropanecarboxylic acid {4-[4-(piperidine-1-carbonyl)-phenyl]-pyrazolo[1,5-a]pyridin-2-yl}-amide]"
0.01 to 100 nM,101 to 500 nM,"CS(=O)(=O)N1CCN(Cc2ccc(-c3cccn4nc(NC(=O)C5CC5)cc34)cc2)CC1 [Compound 15, N-(4-(4-((4-(methylsulfonyl)piperazin-1-yl)methyl)phenyl)pyrazolo[1,5-a]pyridin-2-yl)cyclopropanecarboxamide]"
0.01 to 100 nM,501 to 1000 nM,"CS(=O)(=O)C1CCN(Cc2ccc(-c3cccn4nc(NC(=O)C5CC5)cc34)cc2)CC1 [Compound 17, N-(4-(4-((4-(methylsulfonyl)piperidin-1-yl)methyl)phenyl)pyrazolo[1,5-a]pyridin-2-yl)cyclopropanecarboxamide]"
0.01 to 100 nM,101 to 500 nM,"CS(=O)(=O)C1CCN(Cc2ccc(-c3cccn4nc(NC(=O)C5CC5)cc34)cc2F)CC1 [Compound 18, N-(4-(3-fluoro-4-((4-(methylsulfonyl)piperidin-1-yl)methyl)phenyl)pyrazolo[1,5-a]pyridin-2-yl)cyclopropanecarboxamide]"
101 to 500 nM,–,"CC(=O)Nc1cc2c(-c3ccc(CN4CCN(CC(F)(F)F)CC4)c(F)c3)cccn2n1 [Compound 28, N-(4-(3-fluoro-4-((4-(2,2,2-trifluoroethyl)piperazin-1-yl)methyl)phenyl)pyrazolo[1,5-a]pyridin-2-yl)acetamide]"
0.01 to 100 nM,–,"CC(=O)Nc1cc2c(-c3ccc(CC(=O)N4CCCCC4)cc3)cccn2n1 [Compound 35, N-(4-(4-(2-oxo-2-(piperidin-1-yl)ethyl)phenyl)pyrazolo[1,5-a]pyridin-2-yl)acetamide]"
0.01 to 100 nM,–,"CC(=O)Nc1cc2c(-c3ccc(CC(=O)N4CCOCC4)cc3)cccn2n1 [Compound 36, N-(4-(4-(2-morpholino-2-oxoethyl)phenyl)pyrazolo[1,5-a]pyridin-2-yl)acetamide]"
101 to 500 nM,–,"CC(=O)Nc1cc2c(-c3ccc(CC(=O)N4COCC4(C)C)cc3)cccn2n1 [Compound 38, N-(4-(4-(2-(4,4-dimethyloxazolidin-3-yl)-2-oxoethyl)phenyl)pyrazolo[1,5-a]pyridin-2-yl)acetamide]"
0.01 to 100 nM,–,"CC(c1ccc(-c2cccn3nc(NC(=O)C4CC4)cc23)cc1)N1CCN(S(C)(=O)=O)CC1 (stereo not drawn) [Compound 43, N-(4-(4-(1-(4-(methylsulfonyl)piperazin-1-yl)ethyl)phenyl)pyrazolo[1,5-a]pyridin-2-yl)cyclopropanecarboxamide]"
